Laboratory results taken from ChEMBL document CHEMBL1132129, “Stereoselective synthesis of a new muscarinic M3 receptor antagonist, J-104129” (Bioorg Med Chem Lett, 1999).

Biological target: Muscarinic acetylcholine receptor M3 (Homo sapiens, UniProt P20309)
Assay: Binding affinity for human cloned Muscarinic M3 receptors

Sequence of Muscarinic acetylcholine receptor M3 (P20309 whole entry): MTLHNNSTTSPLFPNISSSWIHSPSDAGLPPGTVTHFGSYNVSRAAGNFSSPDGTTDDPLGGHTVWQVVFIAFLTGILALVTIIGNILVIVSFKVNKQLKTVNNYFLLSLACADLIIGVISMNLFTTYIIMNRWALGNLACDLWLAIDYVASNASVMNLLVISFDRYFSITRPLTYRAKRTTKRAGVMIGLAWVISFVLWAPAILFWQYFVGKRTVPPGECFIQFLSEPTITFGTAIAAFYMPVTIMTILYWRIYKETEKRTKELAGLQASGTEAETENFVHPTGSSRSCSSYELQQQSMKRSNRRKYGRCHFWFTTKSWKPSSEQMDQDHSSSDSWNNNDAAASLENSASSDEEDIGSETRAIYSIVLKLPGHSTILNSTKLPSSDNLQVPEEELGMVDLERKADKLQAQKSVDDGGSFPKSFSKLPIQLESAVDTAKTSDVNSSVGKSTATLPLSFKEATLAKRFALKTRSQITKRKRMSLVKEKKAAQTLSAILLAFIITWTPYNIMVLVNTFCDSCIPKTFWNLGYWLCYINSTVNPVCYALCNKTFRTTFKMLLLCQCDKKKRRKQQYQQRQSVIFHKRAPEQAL

## CC(C)=CCCN1CCC(NC(=O)[C@](O)(c2ccccc2)C2CCCC2)CC1
  Ki: 4.2 nM
